According to patent US20130281313A1, “PROGNOSTIC AND/OR PREDICTIVE BIOMARKERS AND BIOLOGICAL APPLICATIONS THEREOF” (INSTITUT GUSTAVE ROUSSY, priority 2010, published 2013):

How the values were obtained:
A549 cells [1] = test: Real-time measurements of cell adherence (impedance); assay type: cell-based, human; conditions: 50 μM CDDP alone or with 5 mM PN
Procedure: 5×10^3 A549 cells were seeded in standard culture conditions on 96-well plates coated with gold microelectrodes (E-plates™, Roche) and let adapt and recover growth for 40 h. Thereafter, cells were treated with 50 μM CDDP alone or in association with 5 mM PN for additional 48 h. Since plating, the adherence of cells to the plate was monitored every 15 min (as a function of plate impedance) by means of an xCELLigence™ Real-Time Cell Analyzer (RTCA, from Roche).
Cell adherence was measured in 3 parallel wells for each experimental condition.
Results are reported as mean cell index (CI) values, which constitute an indication of electrode impedance, ±SEM.

CDDP-GG DNA adducts = test: Immunofluorescence microscopy for the detection of CDDP-GG DNA adducts; assay type: cell-based, human; conditions: A549 cells, 25 μM CDDP alone or combined with PN
Procedure: Immunofluorescence staining and measurement of specific DNA platination products was performed essentially as previously described {Dzagnidze, 2007; Liedert, 2006}, with minor modifications. Briefly, cells were spotted onto ImmunoSelect adhesion slides (Squarix GmbH, Marl, Germany), fixed overnight in ice-cold methanol, and subjected to proteolytic digestion with 60 μg/mL pepsin (100 μL per spot, 10 min, 37° C., in a moist chamber) and 40 μg/mL proteinase K (100 μL per spot, 10 min, 37° C., in a moist chamber). Upon blockage of unspecific binding sites with 5% (w/v) non-fat powdered milk in PBS, slides were incubated with a rat primary antibody that specifically recognizes CDDP-GG DNA adducts (RC-18) (at 37° C. for 2 h or at 4° C. overnight). […] Images were acquired on an Axioplan fluorescence microscope (Carl Zeiss GmbH, Göttingen, Germany) coupled to a C4880 CCD camera (Hamamatsu Photonics, Herrsching, Germany). For the detection of CDDP-GG DNA adducts by immunofluorescence microscopy, fluorescence signals were measured by quantitative digital image analysis with the ACAS 6.0 Cytometry Analysis System (ACAS II, Asbach, Germany). The levels of adducts in each sample were calculated as arbitrary fluorescence units (AFUs), upon normalization of integrated antibody-derived fluorescence from 200 nuclei/sample to the corresponding DNA content. […]

A549 cells [2] = test: Cell cycle distribution (PI staining, cytofluorometry); assay type: cell-based, human; conditions: 10 μM CDDP alone or with PN and/or NAC
Procedure: To measure apoptosis-related parameters, living cells were labeled for 30 min at +37° C. with 40 nM 3,3′dihexyloxalocarbocyanine iodide (DiOC6(3), from Molecular Probes-Invitrogen, Eugene, USA), which quantifies the mitochondrial transmembrane potential (Δψm), plus 1 μg/mL propidium iodide (PI), which only accumulates in cells with ruptured plasma membrane {Galluzzi, 2009; Galluzzi, 2008; Galluzzi, 2007}. To assess cell cycle distribution, cells were collected, fixed by gentle vortexing in ice-cold 80% (v/v) ethanol (Carlo Erba Reagents, Milano, Italy) and stained with 50 μg/mL PI in 0.1% (w/v) D-glucose in PBS supplemented with 1 μg/mL (w/v) RNAse A {Mondragon, 2009; Mouhamad, 2007}. All cytofluorometric determinations were carried out a FACSCalibur or a FACScan cytofluorometer (BD Biosciences, San Jose, USA) equipped with a 70 μm nozzle.
First line statistical analysis of cytofluorometric results was performed by using the CellQuest™ software (BD Biosciences), by gating on the events characterized by normal forward scatter and side scatter parameters. Apoptosis- and cell cycle-related data were further analyzed with Microsoft Excel (Microsoft Co., Redmond, USA) and statistical significance was assessed by means of two-tailed Student's t test (p<0.05).

[3] = system: murine Lewis lung carcinoma (LLC) cells in immunocompetent C57BL/6 mice; test: Tumor graft model: LLC cells in C57BL/6 mice; assay type: in vivo, mouse; conditions: intraperitoneal CDDP with systemic injections of PN
Procedure: C57BL/6 (H-2b) and Swiss Nude mice were obtained from Janvier (Le Genest St. Isle, France) and Charles River, respectively. Animals were maintained in pathogen-free conditions, and all experiments were carried out (upon approval by the local ethical committee) according to the Federation of European Laboratory Animal Science Association (FELASA) guidelines. Mice were used between 6 and 12 weeks of age. During the experiments, animals were subjected to artificial light cycle (12 h lights on-12 h lights off) and allowed food and drink ad libitum.
5×10^5 LLC and A549 cells were subcutaneously xenografted (in 100 μL sterile PBS) in 25-30 immunocompetent (C57BL/6) and immunodeficient (Swiss Nude) mice, respectively. When the surface of tumors reached 25-40 mm^2, n=4-6 mice were assigned to either of 4 different treatment groups: group 1=100 μL intraperitoneal PBS; group 2=5 mg/kg intraperitoneal CDDP in 100 μL PBS; group 3=240 mg/Kg intraperitoneal Orlistat® in 40 μL PBS; group 4=5 mg/kg intraperitoneal CDDP in 100 μL PBS+intraperitoneal Orlistat® in 40 μL PBS. Treatments were administered three times a week (day 1, 3 and 5; day 8=day 1). Tumor size was monitored on the day of treatment by means of a standard calliper and tumor volume was extrapolated as previously described {Streit, 1999}. […] Statistical significance was evaluated by two-way ANOVA.

**Q.** `Cc1ncc(CO)c(CO)c1O` [PN, pyridoxine] was tested. Which “CDDP-induced cell death measured as impedance caused by attached, viable cells” value (A549 cells [1]) did it give?
**A.** exacerbated CDDP-induced cell death

**Q.** What about the CDDP-DNA adducts (CDDP-GG DNA adducts) of the same compound?
**A.** significantly increased CDDP-DNA adducts

**Q.** What about the “cell cycle arrest induced by CDDP” value (A549 cells [2]) of the same compound?
**A.** not affected by the presence of PN

**Q.** What about the “antitumor effects of CDDP-based chemotherapy (tumor growth)” value [3] of the same compound?
**A.** augmented the antitumor effects of CDDP-based chemotherapy in vivo
